Experimental data as given in US20230381774A1, “MICROFLUDIC LAB-ON-CHIP DEVICE, MATRIX, SMALL MOLECULES AND THREE-DIMENSIONAL SPHEROIDS FOR CELL REPROGRAMMING” (The Regents of the University of California, priority 2022, published 2023).

Columns and labels:
Type in all cases: cell-based, mouse
[1] = test system: histone acetyltransferase (HAT); assay: HAT activity in fibroblasts on PAAm gels of varying stiffness; conditions: glass and gels of various stiffness, inhibitor for 24 hours
Excerpt: FIG. 16. Matrix stiffness modulates histone acetyltransferase (HAT) activity and histone acetylation. (a) Immunofluorescent images of AcH3 in non-transduced fibroblasts cultured on glass and PAAm gels of various stiffness for 2 days. Scale bar, 10 μm. (b) Quantification of AcH3 intensity in cells cultured on glass and PAAm gels of various stiffness (based on experiments in a) (n>40). […] (e) Volcano plot showing differential accessible regions. Red dots indicate regions with increased chromatin accessibility and blue dots regions with decreased accessibility. (f) Heatmap representation of differentially accessible regions that overlap with Ascl1 ChIP-seq peaks (GSE43916: SRX323557). Each row represents a differential region; each column is one biological replicate of the indicated condition. (g) Quantification of HAT activity in fibroblasts cultured on glass and PAAm gels of various stiffness for 2 days, as determined using the Epigenase HAT activity kit (n=6). (h) Quantification of HAT activity in fibroblasts cultured on glass and PA gels of various stiffness for 1 day followed by treatment with vehicle control (DMSO) or a HAT inhibitor (anacardic acid, AA) for 24 hours (n=4). […] In b-i, statistical significance was determined by a one-way ANOVA and Tukey's multiple comparison test (N.S.: Not significant., *p<0.05, **p<0.01, ***p<0.001). […]

[2] = test system: BAM-transduced fibroblasts; assay: iN reprogramming on PAAm gels of varying stiffness; conditions: pre-treated for 24 hours before adding Dox
Excerpt: To determine the role of matrix stiffness on iN reprogramming, adult mouse fibroblasts were transduced with doxycycline-inducible lentiviruses containing the three reprogramming factors Ascl1, Brn2 and Myt1l (BAM), and then seeded onto polyacrylamide (PAAm) gels of various stiffness (40 kPa, 20 kPa, and 1 kPa) coated with fibronectin. Glass coverslips coated with the same ECM protein were used as a rigid glass surface control (FIG. 15a). As shown in FIG. 15b-c, both the cell area and nuclear volume of fibroblasts decreased as the stiffness of the PAAm gel decreased. […] After 7 days, cultures were fixed and immunostained for neuronal marker, neuron-specific class III β-tubulin (Tubb3) in order to identify iN cells and determine the reprogramming efficiency (FIG. 15a). […] To determine whether matrix stiffness could modulate the activation of endogenous Ascl1, fibroblasts were transduced with an Ascl1 promoter driven-GFP construct and reprogrammed for 2 days.

H3K27me3 = assay: Western blotting of H3K27me3
Procedure: Equal amounts of total protein (50 μg) from each sample were separated in a 10% SDS-PAGE gel and transferred to a PVDF membrane at 120 V for 2 hours at room temperature. The blot was blocked with 5% nonfat dry milk suspended in 1×TBS (25 mM Tris, 137 mM NaCl, and 2.7 mM KCl) for 1 hour. Membranes were incubated sequentially with primary antibodies and secondary antibodies. Bands were scanned using a densitometer (Bio-Rad) and quantified using the Quantity One 4.6.3 software (Bio-Rad).

Row | SMILES | stiffness-dependent HAT activity under HAT inhibitor [1] | stiffness-dependent reprogramming efficiency under HAT inhibitor [2] | H3K27me3 level (H3K27me3)
1 | CCCCCCCCCCCCCCCc1cccc(O)c1C(=O)O [anacardic acid] | inhibited the biphasic enhancement of HAT activity and the reprogramming efficiency | inhibited the biphasic enhancement of HAT activity and the reprogramming efficiency | 
2 | CS(=O)(=O)c1ccc(-c2cnc(NCc3ccco3)n3cnnc23)cc1 [EED226] |  |  | inhibited
